Source: patent publication US10457691B2, “Macrocyclic kinase inhibitors and uses thereof” (Dana-Farber Cancer Institute, Inc., priority 2014, dated 2019)

Columns and labels:
Type in all cases: biochemical
Settings in all cases: read-out: Activity of the protein kinase when treated with compound I-1 (% control)
CHK2 = CHK2 (Homo sapiens, UniProt O96017); assay: Protein kinase assay ([γ-32P] ATP), CHK2
Protocol: (§1) In another set of experiments, the activities of the compounds described herein against various protein kinases were determined according to the methods reported in Hastie et al., Nature Protocols, 2006, 1, 968-971.
(§2) Enzyme dilution buffer. This buffer consisted of 50 mM Tris-HCl, pH 7.5, 0.1 mM EGTA, 1 mg ml^−1 bovine serum albumin and 0.1% (vol/vol) 2-mercaptoethanol.
(§3) 10× concentrated assay buffer. An assay buffer of 500 mM Tris-HCl, pH 7.5, 1 mM EGTA, and 100 mM magnesium acetate was used for assay of a wide variety of protein kinases. In some experiments, other cofactors were included (e.g., calcium ions and calmodulin were included for assay of calcium-calmodulindependent protein kinases).
(§4) 1 mM [γ-^32P] ATP. The specific activity of the [γ-^32P] ATP solution was 1×10^5 to 1×10^6 c.p.m. per nmol depending on what was needed to produce an optimal signal/noise ratio. […] To measure the concentration of ATP, a sample of such a stock solution was diluted to 20 μM, and the absorbance of the diluted sample was measured at 259 nm. The absorbance of a 20-μM stock solution of ATP at 259 nm was about 0.31. […] ATP to produce a radioactivity of 1×10^5 to 1×10^6 c.p.m. per nmol. […]
(§5) 13) Measure radioactivity in the samples by Cerenkov counting (e.g., without liquid scintillation fluid) in a liquid scintillation counter using a “^32P program”. […]

MELK = MELK (Homo sapiens, UniProt Q14680); assay: Protein kinase assay ([γ-32P] ATP), MELK
MELK, sequence (Q14680 whole entry): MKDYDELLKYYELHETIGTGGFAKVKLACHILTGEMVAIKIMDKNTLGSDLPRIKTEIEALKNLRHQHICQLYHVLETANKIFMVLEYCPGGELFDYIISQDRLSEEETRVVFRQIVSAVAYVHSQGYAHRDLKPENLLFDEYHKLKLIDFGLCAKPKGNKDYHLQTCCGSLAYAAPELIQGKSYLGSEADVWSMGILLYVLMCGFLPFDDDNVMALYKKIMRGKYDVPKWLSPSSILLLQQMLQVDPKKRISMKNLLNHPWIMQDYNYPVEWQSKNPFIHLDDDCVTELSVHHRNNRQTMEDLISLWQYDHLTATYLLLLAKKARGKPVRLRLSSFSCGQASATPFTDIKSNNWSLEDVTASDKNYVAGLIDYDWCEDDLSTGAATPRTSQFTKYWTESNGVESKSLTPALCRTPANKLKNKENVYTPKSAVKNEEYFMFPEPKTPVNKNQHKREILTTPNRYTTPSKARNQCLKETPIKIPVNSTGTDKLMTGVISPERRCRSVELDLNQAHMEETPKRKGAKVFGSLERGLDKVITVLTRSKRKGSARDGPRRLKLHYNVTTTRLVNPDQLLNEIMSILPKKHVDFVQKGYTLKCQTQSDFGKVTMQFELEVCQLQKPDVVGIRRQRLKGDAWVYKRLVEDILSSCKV
Protocol: as §1, §2, §3, §4, §5

PIM2 = PIM2 (Homo sapiens, UniProt Q9P1W9); assay: Protein kinase assay ([γ-32P] ATP), PIM2
Protocol: as §1, §2, §3, §4, §5

SmMLCK = SmMLCK (Homo sapiens, UniProt Q15746); assay: Protein kinase assay ([γ-32P] ATP), SmMLCK
Protocol: as §1, §2, §3, §4, §5

MLK3 = MLK3 (Homo sapiens, UniProt Q16584); assay: Protein kinase assay ([γ-32P] ATP), MLK3
MLK3, sequence (Q16584 whole entry): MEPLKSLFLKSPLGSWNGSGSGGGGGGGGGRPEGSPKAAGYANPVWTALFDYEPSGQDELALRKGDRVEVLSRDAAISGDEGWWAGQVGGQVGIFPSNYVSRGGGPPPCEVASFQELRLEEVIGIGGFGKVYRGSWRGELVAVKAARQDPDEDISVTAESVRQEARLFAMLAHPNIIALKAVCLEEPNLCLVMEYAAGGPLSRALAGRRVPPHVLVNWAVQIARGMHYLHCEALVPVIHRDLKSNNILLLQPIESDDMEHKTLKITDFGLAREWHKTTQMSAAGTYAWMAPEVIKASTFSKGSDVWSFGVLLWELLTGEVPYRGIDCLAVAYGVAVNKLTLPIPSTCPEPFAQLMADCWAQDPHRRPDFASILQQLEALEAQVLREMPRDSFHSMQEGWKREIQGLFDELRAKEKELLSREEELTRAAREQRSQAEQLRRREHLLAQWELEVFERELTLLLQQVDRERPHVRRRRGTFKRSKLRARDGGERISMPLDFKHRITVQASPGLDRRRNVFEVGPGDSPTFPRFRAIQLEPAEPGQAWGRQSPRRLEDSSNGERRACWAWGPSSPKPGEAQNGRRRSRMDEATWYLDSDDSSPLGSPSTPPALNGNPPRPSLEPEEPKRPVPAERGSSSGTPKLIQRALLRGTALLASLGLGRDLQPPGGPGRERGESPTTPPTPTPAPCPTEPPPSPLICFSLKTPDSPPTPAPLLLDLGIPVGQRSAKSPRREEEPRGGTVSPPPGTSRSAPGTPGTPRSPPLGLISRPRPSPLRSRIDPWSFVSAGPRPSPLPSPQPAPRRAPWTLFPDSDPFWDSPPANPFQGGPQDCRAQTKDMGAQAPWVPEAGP
Protocol: as §1, §2, §3, §4, §5

IKKe = IKKe (Homo sapiens, UniProt Q14164); assay: Protein kinase assay ([γ-32P] ATP), IKKe
IKKe, sequence (Q14164 whole entry): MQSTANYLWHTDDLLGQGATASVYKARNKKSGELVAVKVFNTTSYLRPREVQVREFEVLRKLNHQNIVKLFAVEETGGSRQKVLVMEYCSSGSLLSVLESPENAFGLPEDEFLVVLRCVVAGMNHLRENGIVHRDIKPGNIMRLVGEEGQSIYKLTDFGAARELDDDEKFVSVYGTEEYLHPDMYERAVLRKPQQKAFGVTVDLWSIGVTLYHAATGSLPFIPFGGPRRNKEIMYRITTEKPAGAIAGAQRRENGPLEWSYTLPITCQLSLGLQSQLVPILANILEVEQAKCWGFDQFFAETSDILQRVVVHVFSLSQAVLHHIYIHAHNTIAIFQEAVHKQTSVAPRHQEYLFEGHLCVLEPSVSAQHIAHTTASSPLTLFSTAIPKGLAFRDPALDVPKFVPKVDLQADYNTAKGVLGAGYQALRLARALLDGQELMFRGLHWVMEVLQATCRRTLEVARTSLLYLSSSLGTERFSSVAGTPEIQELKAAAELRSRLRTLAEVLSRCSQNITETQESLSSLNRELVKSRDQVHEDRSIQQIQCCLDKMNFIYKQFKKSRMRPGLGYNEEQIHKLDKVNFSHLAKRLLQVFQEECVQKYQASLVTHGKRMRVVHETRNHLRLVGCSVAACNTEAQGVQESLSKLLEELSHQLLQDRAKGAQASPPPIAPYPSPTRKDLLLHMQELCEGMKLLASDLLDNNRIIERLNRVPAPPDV
Protocol: as §1, §2, §3, §4, §5

PKD1 = PKD1 (Homo sapiens, UniProt Q15139); assay: Protein kinase assay ([γ-32P] ATP), PKD1
Protocol: as §1, §2, §3, §4, §5

ABL = ABL (Homo sapiens, UniProt P00519); assay: Protein kinase assay ([γ-32P] ATP), ABL
ABL, sequence (P00519 whole entry): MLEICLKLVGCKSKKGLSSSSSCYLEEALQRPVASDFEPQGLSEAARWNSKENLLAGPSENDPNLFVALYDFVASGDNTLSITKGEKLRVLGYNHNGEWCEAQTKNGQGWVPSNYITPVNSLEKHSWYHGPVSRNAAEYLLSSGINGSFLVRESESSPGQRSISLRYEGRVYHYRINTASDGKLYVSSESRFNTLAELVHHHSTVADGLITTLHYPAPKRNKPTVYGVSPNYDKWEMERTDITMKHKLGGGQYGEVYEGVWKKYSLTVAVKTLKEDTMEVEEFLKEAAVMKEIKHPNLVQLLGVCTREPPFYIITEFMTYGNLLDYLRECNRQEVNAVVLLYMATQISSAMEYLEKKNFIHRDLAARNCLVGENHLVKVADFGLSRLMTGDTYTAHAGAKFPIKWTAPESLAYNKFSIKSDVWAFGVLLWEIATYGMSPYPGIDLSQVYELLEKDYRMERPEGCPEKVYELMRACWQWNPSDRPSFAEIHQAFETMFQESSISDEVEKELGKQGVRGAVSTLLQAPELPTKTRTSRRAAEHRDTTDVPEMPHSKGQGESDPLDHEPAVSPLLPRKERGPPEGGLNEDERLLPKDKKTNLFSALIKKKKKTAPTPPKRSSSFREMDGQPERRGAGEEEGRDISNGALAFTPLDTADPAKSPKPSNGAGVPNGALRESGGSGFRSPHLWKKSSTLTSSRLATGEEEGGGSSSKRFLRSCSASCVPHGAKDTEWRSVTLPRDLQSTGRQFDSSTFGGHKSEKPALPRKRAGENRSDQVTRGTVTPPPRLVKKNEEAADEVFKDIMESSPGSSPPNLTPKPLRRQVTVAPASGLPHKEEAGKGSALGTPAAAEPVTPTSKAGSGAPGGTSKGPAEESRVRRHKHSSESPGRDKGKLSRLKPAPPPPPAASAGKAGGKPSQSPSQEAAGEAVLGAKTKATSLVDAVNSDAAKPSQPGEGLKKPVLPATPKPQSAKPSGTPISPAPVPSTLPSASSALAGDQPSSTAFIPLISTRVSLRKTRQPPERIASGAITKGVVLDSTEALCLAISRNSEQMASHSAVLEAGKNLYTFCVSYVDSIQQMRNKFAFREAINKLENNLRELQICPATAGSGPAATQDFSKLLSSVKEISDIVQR
Protocol: as §1, §2, §3, §4, §5

LKB1 = LKB1 (Homo sapiens, UniProt Q15831); assay: Protein kinase assay ([γ-32P] ATP), LKB1
Protocol: as §1, §2, §3, §4, §5

EPH-A4 = EPH-A4 (Homo sapiens, UniProt P54764); assay: Protein kinase assay ([γ-32P] ATP), EPH-A4
Protocol: as §1, §2, §3, §4, §5

JNK3 = JNK3 (Homo sapiens, UniProt P53779); assay: Protein kinase assay ([γ-32P] ATP), JNK3
Protocol: as §1, §2, §3, §4, §5

ERK8 = ERK8 (Homo sapiens, UniProt Q8TD08); assay: Protein kinase assay ([γ-32P] ATP), ERK8
Protocol: as §1, §2, §3, §4, §5

CLK2 = CLK2 (Homo sapiens, UniProt P49760); assay: Protein kinase assay ([γ-32P] ATP), CLK2
CLK2, sequence (P49760 whole entry): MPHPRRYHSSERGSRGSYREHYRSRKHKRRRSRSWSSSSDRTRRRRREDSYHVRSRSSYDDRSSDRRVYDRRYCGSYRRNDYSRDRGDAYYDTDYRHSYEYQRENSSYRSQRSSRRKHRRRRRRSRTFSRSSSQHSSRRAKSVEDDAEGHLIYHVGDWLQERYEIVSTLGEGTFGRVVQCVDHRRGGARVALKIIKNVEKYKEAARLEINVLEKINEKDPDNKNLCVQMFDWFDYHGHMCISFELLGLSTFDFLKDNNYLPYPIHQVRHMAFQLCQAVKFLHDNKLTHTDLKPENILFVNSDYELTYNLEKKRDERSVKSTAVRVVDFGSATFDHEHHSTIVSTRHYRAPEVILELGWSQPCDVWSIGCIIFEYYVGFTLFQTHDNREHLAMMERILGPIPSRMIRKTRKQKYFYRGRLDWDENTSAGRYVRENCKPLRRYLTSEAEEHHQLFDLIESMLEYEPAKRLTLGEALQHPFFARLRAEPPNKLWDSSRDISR
Protocol: as §1, §2, §3, §4, §5

ERK2 = ERK2 (Homo sapiens, UniProt P28482); assay: Protein kinase assay ([γ-32P] ATP), ERK2
Protocol: as §1, §2, §3, §4, §5

MST4 = MST4 (Homo sapiens, UniProt Q9P289); assay: Protein kinase assay ([γ-32P] ATP), MST4
MST4, sequence (Q9P289 whole entry): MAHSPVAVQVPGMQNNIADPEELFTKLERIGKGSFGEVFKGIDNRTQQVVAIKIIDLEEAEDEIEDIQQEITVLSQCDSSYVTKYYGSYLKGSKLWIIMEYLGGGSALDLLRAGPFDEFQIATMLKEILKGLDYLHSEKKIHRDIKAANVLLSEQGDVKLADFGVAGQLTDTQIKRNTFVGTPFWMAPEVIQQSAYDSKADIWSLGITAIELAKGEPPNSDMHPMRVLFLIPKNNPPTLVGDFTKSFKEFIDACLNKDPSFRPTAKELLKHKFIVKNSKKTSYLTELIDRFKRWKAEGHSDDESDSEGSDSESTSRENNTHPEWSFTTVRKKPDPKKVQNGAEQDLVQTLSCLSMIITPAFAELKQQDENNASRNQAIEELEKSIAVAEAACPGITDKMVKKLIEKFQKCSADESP
Protocol: as §1, §2, §3, §4, §5

PKCz = PKCz (Homo sapiens, UniProt Q05513); assay: Protein kinase assay ([γ-32P] ATP), PKCz
Protocol: as §1, §2, §3, §4, §5

RSK2 = RSK2 (Homo sapiens, UniProt P51812); assay: Protein kinase assay ([γ-32P] ATP), RSK2
Protocol: as §1, §2, §3, §4, §5

[1] = 0.1 μM of compound I-1, DMSO control = 100%
[2] = 1 μM of compound I-1, DMSO control = 100%

CHK2, sequence (O96017 whole entry): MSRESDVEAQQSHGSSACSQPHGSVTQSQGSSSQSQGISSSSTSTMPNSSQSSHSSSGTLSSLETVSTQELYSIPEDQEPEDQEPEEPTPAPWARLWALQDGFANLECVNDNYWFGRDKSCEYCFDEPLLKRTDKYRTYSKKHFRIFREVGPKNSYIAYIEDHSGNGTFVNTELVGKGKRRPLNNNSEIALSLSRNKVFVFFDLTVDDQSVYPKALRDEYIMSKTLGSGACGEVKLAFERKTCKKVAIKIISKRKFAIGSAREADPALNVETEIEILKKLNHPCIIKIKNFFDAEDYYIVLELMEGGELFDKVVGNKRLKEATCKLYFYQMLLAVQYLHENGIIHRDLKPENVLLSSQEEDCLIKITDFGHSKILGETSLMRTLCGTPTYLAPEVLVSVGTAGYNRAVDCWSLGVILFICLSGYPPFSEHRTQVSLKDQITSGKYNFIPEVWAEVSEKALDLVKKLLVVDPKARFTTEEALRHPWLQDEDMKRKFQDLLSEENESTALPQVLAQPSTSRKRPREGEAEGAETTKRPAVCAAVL

**Q.** For `Cc1cccc(C)c1NC(=O)N1C/C=C\COc2cccc(c2)Nc2cc1ncn2` [Compound I-1], which remaining activity at 0.1 µM (CHK2; [1]) is on record?
**A.** The remaining activity at 0.1 µM was 107%.

**Q.** What about the remaining activity at 1 µM (CHK2; [2]) of the same compound?
**A.** Its remaining activity at 1 µM is 72%.

**Q.** What about the remaining activity at 0.1 µM (MELK; [1]) of the same compound?
**A.** The remaining activity at 0.1 µM was 67%.

**Q.** What about the remaining activity at 1 µM (MELK; [2]) of the same compound?
**A.** Its remaining activity at 1 µM is 49%.

**Q.** What about the remaining activity at 0.1 µM (PIM2; [1]) of the same compound?
**A.** Its remaining activity at 0.1 µM is 92%.

**Q.** What about the remaining activity at 1 µM (PIM2; [2]) of the same compound?
**A.** The remaining activity at 1 µM was 90%.

**Q.** And the remaining activity at 0.1 µM (SmMLCK; [1])?
**A.** The remaining activity at 0.1 µM was 91%.

**Q.** What about the remaining activity at 1 µM (SmMLCK; [2]) of the same compound?
**A.** The remaining activity at 1 µM was 85%.

**Q.** What about the remaining activity at 0.1 µM (MLK3; [1]) of the same compound?
**A.** The remaining activity at 0.1 µM was 94%.

**Q.** And the remaining activity at 1 µM (MLK3; [2])?
**A.** Its remaining activity at 1 µM is 39%.

**Q.** And the remaining activity at 0.1 µM (IKKe; [1])?
**A.** The remaining activity at 0.1 µM was 111%.

**Q.** What about the remaining activity at 1 µM (IKKe; [2]) of the same compound?
**A.** The remaining activity at 1 µM was 90%.

**Q.** And the remaining activity at 0.1 µM (PKD1; [1])?
**A.** The remaining activity at 0.1 µM was 63%.

**Q.** What about the remaining activity at 1 µM (PKD1; [2]) of the same compound?
**A.** The remaining activity at 1 µM was 29%.

**Q.** And the remaining activity at 0.1 µM (ABL; [1])?
**A.** The remaining activity at 0.1 µM was 7%.

**Q.** And the remaining activity at 1 µM (ABL; [2])?
**A.** The remaining activity at 1 µM was 2%.

**Q.** What about the remaining activity at 0.1 µM (LKB1; [1]) of the same compound?
**A.** The remaining activity at 0.1 µM was 99%.

**Q.** What about the remaining activity at 1 µM (LKB1; [2]) of the same compound?
**A.** Its remaining activity at 1 µM is 65%.

**Q.** What about the remaining activity at 0.1 µM (EPH-A4; [1]) of the same compound?
**A.** The remaining activity at 0.1 µM was 8%.

**Q.** And the remaining activity at 1 µM (EPH-A4; [2])?
**A.** Its remaining activity at 1 µM is 3%.

**Q.** What about the remaining activity at 0.1 µM (JNK3; [1]) of the same compound?
**A.** Its remaining activity at 0.1 µM is 51%.

**Q.** What about the remaining activity at 1 µM (JNK3; [2]) of the same compound?
**A.** The remaining activity at 1 µM was 30%.

**Q.** What about the remaining activity at 0.1 µM (ERK8; [1]) of the same compound?
**A.** Its remaining activity at 0.1 µM is 99%.

**Q.** What about the remaining activity at 1 µM (ERK8; [2]) of the same compound?
**A.** Its remaining activity at 1 µM is 72%.

**Q.** What about the remaining activity at 0.1 µM (CLK2; [1]) of the same compound?
**A.** Its remaining activity at 0.1 µM is 100%.

**Q.** And the remaining activity at 1 µM (CLK2; [2])?
**A.** Its remaining activity at 1 µM is 90%.

**Q.** What about the remaining activity at 0.1 µM (ERK2; [1]) of the same compound?
**A.** Its remaining activity at 0.1 µM is 104%.

**Q.** What about the remaining activity at 1 µM (ERK2; [2]) of the same compound?
**A.** Its remaining activity at 1 µM is 80%.

**Q.** And the remaining activity at 0.1 µM (MST4; [1])?
**A.** Its remaining activity at 0.1 µM is 133%.

**Q.** What about the remaining activity at 1 µM (MST4; [2]) of the same compound?
**A.** Its remaining activity at 1 µM is 81%.

**Q.** What about the remaining activity at 0.1 µM (PKCz; [1]) of the same compound?
**A.** The remaining activity at 0.1 µM was 111%.

**Q.** And the remaining activity at 1 µM (PKCz; [2])?
**A.** The remaining activity at 1 µM was 82%.

**Q.** What about the remaining activity at 0.1 µM (RSK2; [1]) of the same compound?
**A.** The remaining activity at 0.1 µM was 98%.

**Q.** And the remaining activity at 1 µM (RSK2; [2])?
**A.** Its remaining activity at 1 µM is 81%.
